Test results published in patent US20130252286A1, “TRANSFORMANT OF YEAST OF GENUS SCHIZOSACCHAROMYCES, AND METHOD FOR PRODUCING SAME” (ASAHI GLASS COMPANY, LIMITED, priority 2010, published 2013).

B1: AaBGL1: β-glucosidase 1 of Aspergillus aculeatus F-50 secreted by S. pombe ASP3326 strain, crude enzyme after ammonium sulfate and ultrafiltration (protein, listed as Aspergillus aculeatus)
chain: DELAFSPPFYPSPWANGQGEWAEAYQRAVAIVSQMTLDEKVNLTTGTGWELEKCVGQTGGVPRLNIGGMCLQDSPLGIRDSDYNSAFPAGVNVAATWDKNLAYLRGQAMGQEFSDKGIDVQLGPAAGPLGRSPDGGRNWEGFSPDPALTGVLFAETIKGIQDAGVVATAKHYILNEQEHFRQVAEAAGYGFNISDTISSNVDDKTIHEMYLWPFADAVRAGVGAIMCSYNQINNSYGCQNSYTLNKLLKAELGFQGFVMSDWGAHHSGVGSALAGLDMSMPGDITFDSATSFWGTNLTIAVLNGTVPQWRVDDMAVRIMAAYYKVGRDRLYQPPNFSSWTRDEYGFKYFYPQEGPYEKVNHFVNVQRNHSEVIRKLGADSTVLLKNNNALPLTGKERKVAILGEDAGSNSYGANGCSDRGCDNGTLAMAWGSGTAEFPYLVTPEQAIQAEVLKHKGSVYAITDNWALSQVETLAKQASVSLVFVNSDAGEGYISVDGNEGDRNNLTLWKNGDNLIKAAANNCNNTIVVIHSVGPVLVDEWYDHPNVTAILWAGLPGQESGNSLADVLYGRVNPGAKSPFTWGKTREAYGDYLVRELNNGNGAPQDDFSEGVFIDYRGFDKRNETPIYEFGHGLSYTTFNYSGLHIQVLNASSNAQVATETGAAPTFGQVGNASDYVYPEGLTRISKFIYPWLNSTDLKASSGDPYYGVDTAEHVPEGATDGSPQPVLPAGGGSGGNPRLYDELIRVSVTVKNTGRVAGDAVPQLYVSLGGPNEPKVVLRKFDRLTLKPSEETVWTTTLTRRDLSNWDVAAQDWVITSYPKKVHVGSSSRQLPLHAALPKVQ

Assays:
crude AaBGL1 [1] = molecular target: T1, crude AaBGL1 (Aspergillus aculeatus, UniProt P48825); assay: Inhibition by various sugar; type: biochemical; design: P3 secretion signal (N, cleaved yes); made in house; culture supernatant, ammonium sulfate treatment and ultrafiltration, crude enzyme; conditions: 1 mM pNPG; for inhibition of crude AaBGL1 by the sugar (in words): 0.1 to 10 mM sugar
Experimental: To 10 μl of 20 mM p-nitrophenyl-β-D-glucoside (hereinafter abbreviated as pNPG), 10 μl of 1M sodium acetate buffer solution (pH 4.5) and 130 μl of water were added, and then 50 μl of the diluted enzyme sample was introduced for reacting them at 37° C. for 10 minutes. 100 μl of the reaction mixture was mixed with 100 μl of 2% sodium carbonate solution to terminate reaction, and then the amount of liberated p-nitrophenol was colorimetrically measured at a wavelength of 450 nm.
By using 1 mM pNPG containing various sugar (0.1 mM, 1.0 mM, 10 mM) as a substrate, the enzyme was reacted in accordance with the activity measurement method. The numerical values shown in Table 5 indicate the ratio (%) of the measured enzymatic activity to the enzymatic activity under a condition where no sugar is contained.

crude AaBGL1 [2] = molecular target: T1, crude AaBGL1; assay: Substrate specificity; type: biochemical; design: P3 secretion signal (N, cleaved yes); made in house; host or cells: Schizosaccharomyces pombe ASP3326 strain (transformed with pSL6P3AaBGL1); culture supernatant, ammonium sulfate treatment and ultrafiltration, crude enzyme; conditions: 0.5% (w/v) ICOS, 0.5% (w/v) cellobiose, 1 mM pNPG, 1 mM pNP-cellobiose; for Specific activity: pH 4.5, 37° C., 10 minutes; for Relative activity: relative to cellobiose
Experimental: Measured in accordance with the activity measurement method by using various substrates. The specific activities and relative activities of the enzyme to each of 0.5% (w/v) ICOS, 0.5% (w/v) cellobiose, 1 mM pNPG, and 1 mM pNP-cellobiose are shown in Table 6.
To 100 μl of 2 mM p-nitrophenyl-β-D-cellobioside (hereinafter referred to as pNP-cellobiose), 10 μl of 1 M sodium acetate buffer solution (pH 4.5) and 40 μl of water were added, followed by addition of 50 μl of the diluted enzyme sample to cultivate for 10 minutes at 37° C. 100 μl of the reaction mixture was mixed with 100 μl of 2% sodium carbonate solution to terminate reaction, and then the amount of liberated p-nitrophenol was colorimetrically measured at a wavelength of 450 nm.
The amount of enzyme that produces 1 μmol of p-nitrophenol per minute was defined as 1 U.
(§1) To 100 μl of 1% cellobiose solution, 10 μl of 1M sodium acetate buffer solution (pH 4.5) was added, followed by addition of 90 μl of the diluted enzyme sample to cultivate for 10 minutes at 37° C. 50 μl of 1N HCl was added to terminate reaction, and then 50 μl of a neutralizing solution comprised of 1M Tris solution:2N sodium hydroxide solution in a ratio of 4:1 was added for neutralization to measure the amount of glucose in the mixture by using glucostat method (Glucose kit, Glucose CII-Test Wako, manufactured by Wako Pure Chemical Industries).
The amount of enzyme that produces 1 μmol of glucose per minute was defined as 1 U.
as §1, with “insoluble cellooligosaccharide (hereinafter referred to as ICOS)” for “cellobiose”

[3] = Optimal temperature test of the crude enzyme; type: biochemical; conditions: 1 mM pNPG, 50 mM acetate buffer pH 4.5, 10 minutes
Experimental: By using 1 mM pNPG as a substrate and 50 mM acetate buffer solution (pH 4.5), the enzyme was reacted for 10 minutes at each temperature. […] (FIG. 3).

Thermostability test = type: physicochemical; conditions: crude enzyme, treated at each temperature for 10 minutes
Experimental: The enzyme was treated at each temperature for 10 minutes, and then reacted by using 1 mM pNPG as a substrate and 50 mM acetate buffer solution (pH 4.5). […] (FIG. 5).
With regard to the each culture supernatant, the thermostability test was carried out in accordance with the thermostability measurement method described in Test Example 7 at a temperature of from 50 to 75° C.
With regard to the each purified sample, the thermostability test was carried out in accordance with the thermostability measurement method described in Test Example 7 at a temperature of from 50 to 75° C.

Glucose inhibition test = type: biochemical; conditions: 1 mM pNPG
Experimental: With regard to glucose inhibition, the crude enzyme obtained in Test Example 6 was compared with a commercially available β-glucosidase Novozyme 188 (manufactured by Novozymes). The glucose inhibition activity was measured in accordance with the activity measurement method by using 1 mM pNPG as a substrate and adding glucose to the reaction mixture in a concentration of from 0 to 100 mM. The reaction temperature was 37° C., the pH was 4.5, and the reaction time was 10 minutes. The other reaction conditions were the same as in the activity measurement method described in Test Example 4.
With regard to the each culture supernatant, the glucose inhibition activity was measured in accordance with the activity measurement method, by using 1 mM pNPG as a substrate and adding from 0 to 100 mM of glucose to the reaction mixture.

Row | Molecule | inhibition of crude AaBGL1 by the sugar (in words) (crude AaBGL1 [1]) | ratio of enzymatic activity to activity without sugar (crude AaBGL1 [1]; sugar concentration 0.1 mM) | ratio of enzymatic activity to activity without sugar (crude AaBGL1 [1]; sugar concentration 1.0 mM) | ratio of enzymatic activity to activity without sugar (crude AaBGL1 [1]; sugar concentration 10 mM) | also measured
1 | OC[C@H]1O[C@@H](O[C@H]2[C@H](O)[C@@H](O)C(O)O[C@@H]2CO)[C@H](O)[C@@H](O)[C@H]1O (stereo partly drawn) [Lactose] | not substantially inhibited | 99% | 100% | 100% | –
2 | O=[N+]([O-])c1ccc(O[C@@H]2O[C@H](CO)[C@@H](O[C@@H]3O[C@H](CO)[C@@H](O)[C@H](O)[C@H]3O)[C@H](O)[C@H]2O)cc1 [pNP-cellobiose, p-nitrophenyl-β-D-cellobioside] | – | – | – | – | Specific activity (crude AaBGL1 [2]): 9.3 U/mg; Relative activity (crude AaBGL1 [2]): 22%
3 | O=C[C@H](O)[C@@H](O)[C@H](O)CO [Xylose] | not substantially inhibited | 98% | 99% | 100% | –
4 | O=C[C@H](O)[C@@H](O)[C@@H](O)[C@H](O)CO [Galactose] | not substantially inhibited | 97% | 98% | 101% | –
5 | OC[C@H]1O[C@H](O[C@H]2[C@H](O)[C@@H](O)[C@H](O)O[C@@H]2CO)[C@H](O)[C@@H](O)[C@@H]1O [Maltose] | inhibited | 99% | 93% | 68% | –
6 | OC[C@H]1O[C@@](CO)(O[C@H]2O[C@H](CO)[C@@H](O)[C@H](O)[C@H]2O)[C@@H](O)[C@@H]1O [Sucrose] | not substantially inhibited | 96% | 99% | 98% | –
7 | OC[C@@H](O)[C@@H](O)[C@H](O)[C@@H](O)CO [Sorbitol] | not substantially inhibited | 98% | 99% | 101% | –
8 | O=C(CO)[C@@H](O)[C@H](O)[C@H](O)CO [Fructose] | not substantially inhibited | 99% | 106% | 115% | –
9 | O=C[C@H](O)[C@@H](O)[C@H](O[C@@H]1O[C@H](CO)[C@@H](O)[C@H](O)[C@H]1O)[C@H](O)CO [Cellobiose] | – | – | – | – | Specific activity (crude AaBGL1 [2]): 42.1 U/mg; Relative activity (crude AaBGL1 [2]): 100%
10 | O=[N+]([O-])c1ccc(O[C@@H]2O[C@H](CO)[C@@H](O)[C@H](O)[C@H]2O)cc1 [pNPG, p-nitrophenyl-β-D-glucoside] | – | – | – | – | Specific activity (crude AaBGL1 [2]): 25.7 U/mg; Relative activity (crude AaBGL1 [2]): 61%
11 | B1 | – | – | – | – | optimal temperature [3]: about 65 °C; thermostability: stable until (Thermostability test): about 60 °C; resistance to glucose inhibition (comparison in words) (Glucose inhibition test; glucose 0 to 100 mM): more resistant to glucose inhibition than Novozyme 188; IC50 (Glucose inhibition test; glucose 0 to 100 mM, 37° C., pH 4.5, 10 minutes, read-out: glucose concentration (I50 value) at which 50% inhibition of the enzymatic activity occurs): 25 mM; activity maintained in the presence of glucose (Glucose inhibition test; 20 mM of glucose added): at least 50%
